Laboratory results as given in paper PMC6630832, “3-Vinylazetidin-2-Ones: Synthesis, Antiproliferative and Tubulin Destabilizing Activity in MCF-7 and MDA-MB-231 Breast Cancer Cells” (Pharmaceuticals, 2019).
Like-named read-outs stand apart in the source and are kept apart here.

Assays:
Type in all cases: cell-based
[1] = test system: human MDA-MB-231 breast cancer cells; experiment: Cell viability (Alamar Blue) antiproliferative assay in MDA-MB-231 cells; conditions: mean ± SEM
Protocol: The human breast carcinoma cell line MCF-7, was purchased from the European Collection of Animal Cell Cultures (ECACC) and was cultured in Eagle’s minimum essential medium with 10% fetal bovine serum, 2 mM L-glutamine and 100 μg/mL penicillin/streptomycin. The medium was supplemented with 1% non-essential amino acids. The human breast carcinoma cell line MDA-MB-231 was purchased from the European Collection of Animal Cell Cultures (ECACC). MDA-MB-231 cells were maintained in Dulbecco’s modified Eagle’s medium (DMEM) supplemeted with 10% (v/v) fetal bovine serum, 2 mM L-glutamine and 100 μg/mL penicillin/streptomycin (complete medium). All media contained 100 U/mL penicillin and 100 μg/mL streptomycin. Triple negative breast cancer Hs578T cells and its invasive variant Hs578Ts(i)8 were obtained as a kind gift from Dr. Susan McDonnell, School of Chemical and Bioprocess Engineering, University College Dublin and were cultured in Dulbecco’s Modified Eagle’s Media (DMEM) with GlutaMAX^TM-I, with the same supplement as for MDA-MB-231 cells in the absence of non-essential amino acids. HEK-293T normal epithelial embryonic kidney cells were cultured in Dulbecco’s Modified Eagle’s Medium (DMEM) with GlutaMAX^TM-I in the absence of non-essential amino acids. K562 and HL-60 cells were originally obtained from the European Collection of Cell Cultures (Salisbury, UK).The K562 cells were derived from a patient in the blast crisis stage of CML HL-60 cells were derive from a patient with acute myeloid leukaemia. Cells were cultured in RPMI-1640 Glutamax medium supplemented with 10% FCS media, and 100 μg/mL penicillin/streptomycin. Cells were maintained at 37 °C in 5% CO2 in a humidified incubator. All cells were sub-cultured three times/week (adherent cells by trypsinisation).
Cells were seeded at a density of 5 × 10^3 cells/well (MCF-7), in triplicate in 96-well plates. After 24 h, cells were then treated with either medium alone, vehicle [1% ethanol (v/v)] or with serial dilutions of CA-4 or β-lactam analogue. Cell viability for MCF-7 and MDA-MB-231 was analysed using the Alamar Blue assay (Invitrogen Corp, Thermo Fisher Scientific, 168 Third Avenue, Waltham, MA, USA) according to the manufacturer’s instructions. After 72 h, Alamar Blue [10% (v/v)] was added to each well and plates were incubated for 3–5 h at 37 °C in the dark. Fluorescence was read using a 96-well fluorimeter with excitation at 530 nm and emission at 590 nm. Results were expressed as percentage viability relative to vehicle control (100%). Dose response curves were plotted and IC50 values (concentration of drug resulting in 50% reduction in cell survival) were obtained using the commercial software package Prism (GraphPad Software, Inc., 2365 Northside, Suite 560, San Diego, CA, USA). Experiments were performed in triplicate on at least three separate occasions.

[2] = test system: human MCF-7 breast cancer cells; experiment: Cell viability (Alamar Blue) antiproliferative assay in MCF-7 cells
[3] = test system: NCI 60 cell line panel; experiment: NCI60 cell line screen (SRB assay), whole panel or sub-panels
Description: The results are summarized in Tables S3–S5, Supplementary Information.
Table S5: NCI 60 cell line mean screening results for selected compounds NCI Ref. Compound GI50 TGI LC50 […]
a GI50 and LC50 are the mean concentrations required to inhibit the growth and kill 50 % of the cells over the total NCI 60 cell line panel in the assay respectively. […]
over the total NCI 60 cell line panel.

[4] = test system: BT-549; experiment: NCI60 screen (SRB), Breast cancer; conditions: Homo sapiens
[5] = test system: OVCAR-3; experiment: NCI60 screen (SRB), Ovarian cancer; conditions: Homo sapiens
[6] = test system: SF295; experiment: NCI60 screen (SRB), CNS Cancer; conditions: Homo sapiens, SF-295
[7] = test system: 786-0; experiment: NCI60 screen (SRB), Renal cancer; conditions: Homo sapiens
[8] = test system: SNB-19; experiment: NCI60 screen (SRB), CNS Cancer; conditions: Homo sapiens
[9] = test system: MCF-7; experiment: NCI60 screen (SRB), Breast cancer; conditions: Homo sapiens, MCF7
[10] = test system: SNB-75; experiment: NCI60 screen (SRB), CNS Cancer; conditions: Homo sapiens
[11] = test system: KM12; experiment: NCI60 screen (SRB), Colon Cancer; conditions: Homo sapiens
[12] = test system: OVCAR-4; experiment: NCI60 screen (SRB), Ovarian cancer; conditions: Homo sapiens
[13] = test system: MALME-3M; experiment: NCI60 screen (SRB), Melanoma; conditions: Homo sapiens
[14] = test system: SN12C; experiment: NCI60 screen (SRB), Renal cancer; conditions: Homo sapiens
[15] = test system: HCT-116; experiment: NCI60 screen (SRB), Colon Cancer; conditions: Homo sapiens
[16] = test system: SK-MEL-5; experiment: NCI60 screen (SRB), Melanoma; conditions: Homo sapiens
[17] = test system: K-562; experiment: NCI60 screen (SRB), Leukemia; conditions: Homo sapiens, K562
[18] = test system: SR; experiment: NCI60 screen (SRB), Leukemia; conditions: Homo sapiens
[19] = test system: RPMI-8226; experiment: NCI60 screen (SRB), Leukemia; conditions: Homo sapiens
[20] = test system: OVCAR-8; experiment: NCI60 screen (SRB), Ovarian cancer; conditions: Homo sapiens
[21] = Homo sapiens, MCF7, Table S9, MCF-7 IC50 at which the toxicity was estimated, read-out: IC50, MCF-7
[22] = mean over the total NCI 60 cell line panel
[23] = mean over the total NCI 60 cell line panel, read-out: GI50 (mean)
[24] = mean over the total NCI 60 cell line panel, read-out: LC50 (mean)
[25] = over the full 60 cell line panel, read-out: mean GI50
[26] = MCF7, human MCF-7 breast cancer cells, 72 h, mean ± SEM, read-out: Antiproliferative Activity IC50
[27] = NCI60 Breast cancer cell line BT-549, read-out: GI50
[28] = NCI60 Ovarian cancer cell line OVCAR-3, read-out: GI50
[29] = NCI60 CNS Cancer cell line SF295, read-out: GI50
[30] = NCI60 Renal cancer cell line 786-0, read-out: GI50
[31] = Homo sapiens, MCF7, 72 h, human MCF-7 breast cancer cells, 72 h, mean ± SEM, read-out: Antiproliferative Activity IC50
[32] = NCI60 CNS Cancer cell line SNB-19, read-out: GI50
[33] = NCI result in MCF-7 cells, read-out: GI50
[34] = NCI60 CNS Cancer cell line SNB-75, read-out: GI50
[35] = NCI60 Colon Cancer cell line KM12, read-out: GI50
[36] = NCI60 Ovarian cancer cell line OVCAR-4, read-out: GI50
[37] = NCI60 Melanoma cell line MALME-3M, read-out: GI50
[38] = NCI60 Renal cancer cell line SN12C, read-out: GI50
[39] = NCI60 Colon Cancer cell line HCT-116, read-out: GI50
[40] = NCI60 Melanoma cell line SK-MEL-5, read-out: GI50
[41] = NCI60 Leukemia cell line K-562, read-out: GI50
[42] = NCI60 Leukemia cell line SR, read-out: GI50
[43] = NCI60 Leukemia cell line RPMI-8226, read-out: GI50
[44] = NCI60 Ovarian cancer cell line OVCAR-8, read-out: GI50

Row | SMILES | IC50 [1] | TGI (mean) [3, 22] | GI50 [3, 23] | CC50 [3, 24] | GI50 ([3]; 60 cell, read-out: GI50 (mean)) | CC50 ([3]; 60 cell, read-out: LC50 (mean)) | GI50 ([3]; 60 cell, read-out: mean GI50) | GI50 [4, 27] | GI50 [5, 28] | GI50 [6, 29] | GI50 [7, 30] | IC50 [2, 31] | GI50 [8, 32] | GI50 [9, 33] | GI50 [10, 34] | GI50 [11, 35] | GI50 [12, 36] | GI50 [13, 37] | GI50 [14, 38] | GI50 [15, 39] | further results
1 | COc1ccc(/C=C\c2cc(OC)c(OC)c(OC)c2)cc1O [CA-4, Combretastatin A-4, reference compound] | 43 nM | 10300 nM | 99.3 nM | 85500 nM |  |  |  |  |  |  |  |  |  |  |  |  |  |  |  |  | IC50 [2, 21]: 5.2 nM; GI50 [3, 25]: 99 nM
2 | C=CC1C(=O)N(c2cc(OC)c(OC)c(OC)c2)C1c1ccc(OC)cc1 (stereo not shown) [Compound 7h, 4-(4-Methoxyphenyl)-1-(3,4,5-trimethoxyphenyl)-3-vinylazetidin-2-one] |  | 23440 nM |  |  | 52.5 nM | 75900 nM | 52 nM |  |  |  |  |  |  |  |  |  |  |  |  |  | GI50 ([4]; BT-549): 32.5 nM; GI50 ([5]; OVCAR-3): 25.1 nM; GI50 [6]: 35.8 nM; GI50 ([7]; 786-0): 33.9 nM; IC50 [2, 26]: 20 ± 2.5 nM; GI50 ([8]; SNB-19): 54.2 nM; GI50 [9]: 30.6 nM; CC50 ([3]; 60 cell, read-out: LC50): > 100000 nM; GI50 ([10]; SNB-75): 37.2 nM; GI50 ([11]; KM12): 35.1 nM; GI50 ([12]; OVCAR-4): 77.6 nM; GI50 ([13]; Malme-3M): 73 nM; GI50 ([14]; SN12C): 55.2 nM; GI50 ([15]; HCT-116): 30.7 nM; GI50 ([16]; SK-MEL-5): 19.4 nM
3 | C=CC1C(=O)N(c2cc(OC)c(OC)c(OC)c2)C1c1ccc(OC)c(O)c1 (stereo not shown) [Compound 7s, 4-[3-Hydroxy-4-methoxyphenyl]-1-(3,4,5-trimethoxyphenyl)-3-vinylazetidin-2-one] |  | 5890 nM |  |  | 22.9 nM | 74100 nM | 23 nM | < 10 nM | < 10 nM | 271 nM | 27.3 nM | 8 ± 0.71 nM | 40.5 nM | < 10 nM | 15.3 nM | < 10 nM | 13.1 nM | 28.3 nM | < 10 nM | < 10 nM | IC50 [2, 21]: 1.4 nM; GI50 ([3]; 60 cell): < 10 nM; CC50 ([3]; 60 cell, read-out: LC50): > 100000 nM; GI50 [16, 40]: < 10 nM
4 | C=CC1C(=O)N(c2cc(OC)c(OC)c(OC)c2)C1c1ccc(OC)c(N)c1 (stereo not shown) [Compound 7t, 4-(3-Amino-4-methoxyphenyl)-1-(3,4,5-trimethoxyphenyl)-3-vinylazetidin-2-one] | 30 ± 2 nM | 50120 nM |  |  | 47.9 nM | 89100 nM | 48 nM |  |  |  |  |  |  |  |  |  |  |  |  |  | GI50 [17]: 37.2 nM; GI50 ([4]; BT-549): 25.9 nM; GI50 ([5]; OVCAR-3): 18.1 nM; GI50 [6]: 21.3 nM; GI50 ([18]; SR): 43.9 nM; GI50 ([7]; 786-0): 34.6 nM; IC50 [2, 26]: 17 ± 1.8 nM; GI50 ([8]; SNB-19): 49 nM; GI50 [9]: < 10 nM; GI50 ([10]; SNB-75): 30.1 nM; GI50 ([11]; KM12): 24.2 nM; GI50 ([12]; OVCAR-4): < 10 nM; GI50 ([19]; RPMI-8226): < 10 nM; GI50 ([20]; OVCAR-8): 14.8 nM; GI50 ([13]; Malme-3M): > 100000 nM; GI50 ([15]; HCT-116): 27.6 nM; GI50 ([16]; SK-MEL-5): 14.6 nM
5 | C=CC1C(=O)N(c2cc(OC)c(OC)c(OC)c2)C1c1ccc(OC)c(OP(=O)(O)O)c1 (stereo not shown) [Compound 17b, 2-Methoxy-5-(1-(3,4,5-trimethoxyphenyl)-4-oxo-3-vinylazetidin-2-yl)phenyl dihydrogen phosphate] |  | 36300 nM | 72.4 nM | 87100 nM |  |  |  | 115 nM | 49.7 nM | 29.1 nM | 229 nM | 27 ± 2 nM | 459 nM | 39.4 nM | 36.5 nM | 39.1 nM | 160 nM | 54500 nM | 146 nM | 43.9 nM | GI50 [17, 41]: 41.5 nM; GI50 [18, 42]: 57.2 nM; GI50 [19, 43]: 80.2 nM; GI50 [20, 44]: 44.2 nM; GI50 [16, 40]: 31.2 nM
6 | CCC1C(=O)N(c2cc(OC)c(OC)c(OC)c2)C1c1ccc(OC)c(OP(=O)(O)O)c1 (stereo not shown) [Compound 17c, 5-(3-Ethyl-1-(3,4,5-trimethoxyphenyl)-4-oxoazetidin-2-yl)-2-methoxyphenyl dihydrogen phosphate] | 44 ± 7 nM | 43650 nM | 138 nM | 85100 nM |  |  |  | 33.8 nM | 36.8 nM | 24.3 nM | 44.5 nM | 21 ± 1.5 nM | 63.9 nM | 25.1 nM | 23.7 nM | 22 nM | 168 nM | 71400 nM | 54.8 nM | 35 nM | GI50 [17, 41]: 35 nM; GI50 [18, 42]: 33.5 nM; GI50 [3, 25]: 73 nM; GI50 [19, 43]: 48.2 nM; GI50 [20, 44]: 32.7 nM; GI50 [16, 40]: 19 nM
